Our source for the IC50 and melting point values is article PMC9181899, “Synthesis and Anticancer Properties of New 3-Methylidene-1-sulfonyl-2,3-dihydroquinolin-4(1H)-ones” (Molecules, 2022).

Read-outs that look alike come from different tables or passages of the source.

In one series the test system is MCF-7 cells. Put plainly: MTT in vitro cytotoxicity assay, MCF-7. The following applies: mean ± SEM. Format: cell-based. Here is the method: (§1) The promyelocytic leukemia HL-60 and breast cancer adenocarcinoma MCF-7 cell lines were purchased from the European Collection of Cell Cultures (ECACC). Leukemia cells were cultured in RPMI 1640 plus GlutaMax I medium (Gibco/Life Technologies, Carlsbad, CA, USA). MCF-7 cells were maintained in Minimum Essential Medium Eagle (Sigma Aldrich, St. Louis, MO, USA) and supplemented with 2 mM glutamine and men non-essential amino acid solution (Sigma Aldrich, St. Louis, MO, USA). Both media were supplemented with 10% heat-inactivated fetal bovine serum (Biological Industries, Beit-Haemek, Israel) and antibiotics (100 U/mL penicillin and 100 μg/mL streptomycin) (Sigma-Aldrich, St. Louis, MO, USA). Human umbilical vein endothelial cells (HUVECs) were purchased from the American Type Culture Collection (ATCC). Cells were cultured using EGM-2 Endothelial Medium BulletKit purchased from Lonza (Lonza, Walkersville, MD, USA). Cells were maintained at 37 °C in 5% CO2 atmosphere and grown until 80% confluent.
(§2) The tested compounds were dissolved in sterile dimethyl sulfoxide (DMSO) and further diluted with culture medium. The final concentration of DMSO in cell cultures was less than 0.1% v/v. Controls without and with 0.1% DMSO were performed in each experiment. At the used concentration, DMSO had no effect on the observed parameters.
(§3) The MTT (3-(4,5-dimethylthiazol-2-yl)-2,5-diphenyltetrazolium bromide) assay, which measures the activity of cellular dehydrogenases, was performed according to the Mosmann method. Exponentially growing cells were seeded into 24-well plates at a density of 8 × 10^4 cells/mL and left to grow for 24 h. After 24 h or 48 h of incubation with various concentrations of the tested compounds (dissolved in DMSO and diluted with complete culture medium), cells were incubated with 0.1 mL of MTT solution (5 mg/mL in phosphate buffered saline) for 1.5 h. The metabolically active cells reduced MTT to blue formazan crystals. The plates were centrifuged, and the supernatant was discarded. DMSO (1 mL) was added to each well to dissolve the crystals, whose absorbance was measured at 560 nm using FlexStation 3 Multi-Mode Microplate Reader (Molecular Devices, LLC, San Jose, CA, USA). The untreated cells were used as control. The IC50 values were calculated from the concentration–response curves. The data were expressed as mean ± SEM of three independent experiments.

Another series concerns HL-60 cells. The series is described as follows: MTT in vitro cytotoxicity assay, HL-60. Format: cell-based. Conditions: 48 h incubation, mean ± SEM, read-out: IC50 HL-60. As for the experimental part:
as §1, §2, §3

A further series concerns HUVEC cells. The series is described as follows: MTT in vitro cytotoxicity assay, HUVEC (normal cells). Format: cell-based, human. The following applies: 48 h incubation, mean ± SEM. Here is the method: as §1, §2, §3
The mark [1] stands for this setting: Homo sapiens, MCF7, 48 h incubation.

Broadly, the IC50 is the concentration needed to halve the response being measured. In general, melting point refers to the temperature, or range, at which the solid turns liquid. For `C=C1C(=O)c2ccccc2N(S(=O)(=O)c2ccc(Cl)cc2)C1c1ccccc1` (stereo not drawn) [Compound 5g], the melting point was found to be 178 °C. In addition, the midpoint of inhibition in the series with MCF-7 cells (setting [1]), the IC50, lay at 1890 ± 30 nM. Also, the IC50 in the series with HL-60 cells (Homo sapiens, HL-60, 48 h) is 780 ± 70 nM.

`C=C1C(=O)c2ccccc2N(S(=O)(=O)c2ccc(Cl)cc2)C1c1ccc(OC)cc1` (stereo not drawn) [Compound 5h, 1-((4-Chlorophenyl)sulfonyl)-2-(4-methoxyphenyl)-3-methylidene-2,3-dihydroquinolin-4(1H)-one] showed a melting point of 140 °C. Besides, the IC50 in the series with MCF-7 cells (setting [1]) was determined as 2100 ± 160 nM. Further, the IC50 in the series on HL-60 cells (Homo sapiens, HL-60, 48 h) turned out to be 920 ± 10 nM.

Molecule `C=C1C(=O)c2ccccc2N(S(=O)(=O)c2ccccc2)C1c1ccc(OC)cc1` (stereo not drawn) [Compound 5d, 2-(4-Methoxyphenyl)-3-methylidene-1-(phenylsulfonyl)-2,3-dihydroquinolin-4(1H)-one] gave a melting point of 152 °C. In addition, 1210 ± 240 nM corresponded to half-maximal inhibition in the series with MCF-7 cells (setting [1]) (IC50). For the same molecule, in the series on HL-60 cells (Homo sapiens, HL-60, 48 h), the IC50 was 1120 ± 370 nM.

On to `C=C1C(=O)c2cc(Cl)ccc2N(S(=O)(=O)c2ccc(C)cc2)C1CC` (stereo not drawn) [Compound 5m, 6-Chloro-2-ethyl-3-methylidene-1-tosyl-2,3-dihydroquinolin-4(1H)-one], for which the melting point was 126 °C. The midpoint of inhibition in the series on MCF-7 cells (setting [1]), the IC50, lay at 3480 ± 420 nM. The half-maximal inhibitory concentration (IC50) with HL-60 cells (Homo sapiens, HL-60, 48 h) amounted to 1750 ± 30 nM.

For `C=C1C(=O)c2cc(Br)ccc2N(S(=O)(=O)c2ccc(C)cc2)C1c1ccccc1` (stereo not drawn) [Compound 5s, 6-Bromo-3-methylidene-2-phenyl-1-tosyl-2,3-dihydroquinolin-4(1H)-one], the melting point was 162 °C. In addition, in the series on MCF-7 cells (setting [1]), it took 2670 ± 50 nM to reach half-maximal inhibition (IC50). The IC50 in the series on HL-60 cells (Homo sapiens, HL-60, 48 h) amounted to 620 ± 10 nM.

For `C=C1C(=O)c2cc(Cl)ccc2N(S(=O)(=O)c2ccc(C)cc2)C1c1ccc(OC)cc1` (stereo not drawn) [Compound 5p, 6-Chloro-2-(4-methoxyphenyl)-3-methylidene-1-tosyl-2,3-dihydroquinolin-4(1H)-one], the melting point is 150 °C. This molecule gave an IC50 with MCF-7 cells (setting [1]) of 3600 ± 190 nM. In the series with HL-60 cells (Homo sapiens, HL-60, 48 h), the IC50 came to 2070 ± 20 nM.

Consider `N.N.O=C([O-])C1(C(=O)[O-])CCC1.[Pt+2]` [Carboplatin, reference compound], for which the IC50 with MCF-7 cells (48 h incubation) stood at 2900 ± 100 nM; with HL-60 cells, 3800 ± 450 nM; with HUVEC cells, 5.35 ± 0.05 µM.

As for `C=C1C(=O)c2cc(OC)c(OC)cc2N(S(=O)(=O)c2ccc(C)cc2)C1c1ccc(OC)cc1` (stereo not drawn) [Compound 5l, 6,7-Dimethoxy-2-(4-methoxyphenyl)-3-methylidene-1-tosyl-2,3-dihydroquinolin-4(1H)-one], the melting point stood at 196 °C. In addition, the IC50 in the series with MCF-7 cells (setting [1]) amounted to 1150 ± 40 nM. Besides, in the series on HL-60 cells (Homo sapiens, HL-60, 48 h), the IC50 was 1480 ± 60 nM.

Regarding `C=C1C(=O)c2cc(OC)c(OC)cc2N(S(=O)(=O)c2ccc(C)cc2)C1c1ccccc1` (stereo not drawn) [Compound 5k, 6,7-Dimethoxy-3-methylidene-2-phenyl-1-tosyl-2,3-dihydroquinolin-4(1H)-one], the melting point came to 196 °C. This molecule yielded an IC50 in the series on MCF-7 cells (setting [1]) of 1460 ± 90 nM. Further, the IC50 in the series with HL-60 cells (Homo sapiens, HL-60, 48 h) came to 580 ± 20 nM.

For `C=C1C(=O)c2cc(Br)ccc2N(S(=O)(=O)c2ccc(C)cc2)C1c1ccc(OC)cc1` (stereo not drawn) [Compound 5t, 6-Bromo-2-(4-methoxyphenyl)-3-methylidene-1-tosyl-2,3-dihydroquinolin-4(1H)-one], the melting point is 168 °C. The IC50 in the series with MCF-7 cells (setting [1]) worked out at 2810 ± 50 nM. The IC50 with HL-60 cells (Homo sapiens, HL-60, 48 h) turned out to be 740 ± 60 nM.

As to `C=C1C(=O)c2cc(Cl)ccc2N(S(=O)(=O)c2ccc(C)cc2)C1c1ccccc1` (stereo not drawn) [Compound 5o, 6-Chloro-3-methylidene-2-phenyl-1-tosyl-2,3-dihydroquinolin-4(1H)-one], the melting point was 162 °C. Inhibition in the series on MCF-7 cells (setting [1]) was half-maximal at 3670 ± 410 nM (IC50). Further, the IC50 in the series on HL-60 cells (Homo sapiens, HL-60, 48 h) was found to be 2040 ± 50 nM.

Regarding `C=C1C(=O)c2ccccc2N(S(=O)(=O)c2ccccc2)C1c1ccccc1` (stereo not drawn) [Compound 5c, 3-Methylidene-2-phenyl-1-(phenylsulfonyl)-2,3-dihydroquinolin-4(1H)-one], the melting point came to 150 °C. In the series on MCF-7 cells (setting [1]), this molecule gave a half-maximal inhibitory concentration (IC50) of 2250 ± 200 nM. For the same molecule, in the series with HL-60 cells (Homo sapiens, HL-60, 48 h), the IC50 turned out to be 1360 ± 130 nM.
